Experimental data taken from patent US8778921B2, “Ansamycin hydroquinone compositions” (Infinity Pharmaceuticals, Inc., priority 2008, dated 2014).

Experiments:
[1] = Stability at 40° C. and 75% relative humidity (percent purity by HPLC); assay type: physicochemical; details: 40° C. and 75% RH
Procedure: As used herein, a “stable composition” refers a composition comprising a sulfur-containing compound and a baseline amount of the compound of formula (I) (e.g., such as percent purity as measured by HPLC) such that, after being subjected to standard stability conditions (e.g., 40° C. and 75% relative humidity) for a specified period of time (e.g., 1 day, 2 days, 3 days, 4 days, 5 days, 7 days, 14 days, 21 days, or 30 days), at least about 80% of the original amount of the compound of formula (I) remains in the composition (i.e., has not oxidized to a compound of formula (II) or degraded to other by-products). In certain embodiments, at least about 85%, at least about 90%, at least about 91%, at least about 92%, at least about 93%, at least about 94%, or at least about 95% of the original amount of the hydroquinone compound of formula (I) remains in the composition for a specified period of time (e.g., 1 day, 2 days, 3 days, 4 days, 5 days, 7 days, 14 days, 21 days, or 30 days).
The stability data for 17-AG-HQ of Example 2 when kept at 40° C. and 75% relative humidity (RH) is depicted in FIG. 8 (see Table 2 for tabulated stability data). It was observed that 17-AG-HQ of Example 2 completely oxidizes to its quinone form in two weeks at 40° C. and […] as determined by HPLC.

[2] = Solubilizing or suspending agents: color change as indication of oxidation of 17-AG-HQ to 17-AG; assay type: physicochemical; details: argon headspace, checked up to one hour
Procedure: Solvents (2 mL) were pipetted out into labeled vials (Table 4). After purging the headspace with argon, the solvent vials were chilled at 4° C. for 1 hour. 17-AG-HQ of Example 2 (10 mg) was added each solvent vial and headspace was purged again with argon. The vials were checked for color change for up to one hour. Color change is an indication of stability: 17-AG-HQ is yellow while 17-AG is pink, thus a color change from yellow to pink would indicate oxidation of 17-AG-HQ to 17-AG. This listing of suitable solvents or suspending agents is also applicable for solvating/suspending the hydroquinones of Examples 3-6, 8, 10 or 11.

[3] = Table 12, formulations of 17-AG-HQ of Example 2

## CO[C@H]1/C=C\C=C(/C)C(=O)Nc2cc(O)c(N)c(c2O)C[C@@H](C)C[C@H](OC)[C@H](O)[C@@H](C)/C=C(\C)[C@@H]1OC(N)=O [17-AG-HQ of Example 2, 17-amino-geldanamycin hydroquinone]
[1]; determined by HPLC
  time in which the hydroquinone completely oxidizes to its quinone form: two
[1]; more prone to oxidation
  stability compared to 17-AG-HQ HCl salt of Example 1: less stable
[1]; Table 2
  Percent Purity of 17-AG-HQ T = 0 Days: 92%
  Percent Purity of 17-AG-HQ T = 2 Days: 66%
  Percent Purity of 17-AG-HQ T = 5 Days: 22%
  Percent Purity of 17-AG-HQ T = 14 Days: 0%
  Percent Purity of 17-AG-HQ T = 30 Days: 0%
[1]; [3]
  Percent Purity of 17-AG-HQ T = 0 Days: 92%
  Percent Purity of 17-AG-HQ T = 2 Days: 66%
  Percent Purity of 17-AG-HQ T = 5 Days: 22%
  Percent Purity of 17-AG-HQ T = 14 Days: 0%
  Percent Purity of 17-AG-HQ T = 30 Days: 0%
[2]; Acetone, 10 mg in 2 mL solvent chilled at 4° C.
  Observations: Dissolves with no color change
[2]; DMSO:Acetonitrile:TFA (80:20:0.1), 10 mg in 2 mL solvent chilled at 4° C.
  Observations: Dissolves with color change to rusty
[2]; Dichloromethane, 10 mg in 2 mL solvent chilled at 4° C.
  Observations: Dissolves with no color change
[2]; Ethanol, 10 mg in 2 mL solvent chilled at 4° C.
  Observations: Dissolves with no color change
[2]; Methanol, 10 mg in 2 mL solvent chilled at 4° C.
  Observations: Dissolves with color change to red
[2]; Mineral Oil, 10 mg in 2 mL chilled at 4° C.
  Observations: Suspends with no color change
[2]; Propylene Glycol, 10 mg in 2 mL solvent chilled at 4° C.
  Observations: Dissolves with color change to rusty
[2]; Toluene, 10 mg in 2 mL solvent chilled at 4° C.
  Observations: Dissolves with no color change
[2]; Xylene, 10 mg in 2 mL solvent chilled at 4° C.
  Observations: Dissolves with no color change
